The experiment addresses T1, human PAD4 (Homo sapiens, UniProt Q9UM07).
T1 construct: human PAD4 (NM_012387), A2P663, was PCR amplified; His-SUMO (N, cleaved yes); made in house; host or cells: E. coli BL21(DE3)
The experiment can be described thus: In vitro PAD4 BAEE biochemical assay. The settings on record: human PAD4, BAEE substrate; 5 nM PAD4, 2 mM calcium chloride, 3 mM BAEE; geometric mean of multiple experiments. In a few lines: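 Ammonia release from BAEE deimination monitored by o-phthalaldehyde amine coupling (1 h, 25 °C) after EDTA stop. Final conditions: 5 nM tag-free recombinant human PAD4 (E. coli), 2 mM CaCl2, 3 mM BAEE, pH 7.6 MOPS with DTT; 30 min compound preincubation, then 2 h reaction at 25 °C.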
T1 sequence (Q9UM07 2-663): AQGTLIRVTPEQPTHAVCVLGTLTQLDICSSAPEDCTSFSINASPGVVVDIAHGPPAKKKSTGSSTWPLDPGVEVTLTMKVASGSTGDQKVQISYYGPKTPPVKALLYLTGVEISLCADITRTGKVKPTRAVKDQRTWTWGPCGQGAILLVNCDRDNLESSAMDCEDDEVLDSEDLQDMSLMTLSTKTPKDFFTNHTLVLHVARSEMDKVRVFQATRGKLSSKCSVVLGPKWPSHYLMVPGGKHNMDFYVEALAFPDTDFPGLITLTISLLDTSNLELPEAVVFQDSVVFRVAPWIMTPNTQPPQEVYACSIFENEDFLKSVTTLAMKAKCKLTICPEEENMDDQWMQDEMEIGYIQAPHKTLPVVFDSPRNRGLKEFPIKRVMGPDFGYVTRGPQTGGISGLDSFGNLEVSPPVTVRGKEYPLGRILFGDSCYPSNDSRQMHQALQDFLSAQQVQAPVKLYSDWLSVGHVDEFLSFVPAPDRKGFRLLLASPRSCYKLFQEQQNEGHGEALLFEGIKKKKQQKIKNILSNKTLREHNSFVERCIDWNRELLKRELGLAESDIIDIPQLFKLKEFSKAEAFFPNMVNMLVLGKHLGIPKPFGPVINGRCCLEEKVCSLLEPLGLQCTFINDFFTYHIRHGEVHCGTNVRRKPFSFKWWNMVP
Regarding `COc1cc(C(=O)N2[C@H]3CC[C@@H]2[C@H](N)C3)cc2nc(-c3cc4ccc([C@@H](C)NC(=O)C5(F)CC5)nc4n3CC3CC3)c(C)n12` [Example 136, ~{N}-[(1~{R})-1-[2-[7-[(1~{R},2~{R},4~{S})-2-amino-7-azabicyclo[2.2.1]heptane-7-carbonyl]-5-methoxy-3-methylimidazo [1,2-a]pyridin-2-yl]-1-(cyclopropylmethyl)pyrrolo [2,3-b]pyridin-6-yl]ethyl]-1-fluorocyclopropane-1-carboxamide], the half-inhibitory concentration (IC50) (as a rule, the point on the concentration scale where inhibition reaches its midpoint) turned out to be 143 nM. To `COc1cc(C(=O)N2CCC[C@@H](N)C2)cc2nc(-c3cc4ccc(N(C(F)F)S(=O)(=O)C5CC5)nc4n3CC3CC3)c(C)n12` [Example 413, ~{N}-[2-[7-[(3~{R})-3-aminopiperidine-1-carbonyl]-5-methoxy-3-methylimidazo [1,2-a]pyridin-2-yl]-1-(cyclopropylmethyl)pyrrolo [2,3-b]pyridin-6-yl]-~{N}-(difluoromethyl) cyclopropanesulfonamide] belongs 253 nM; to `COc1cc(C(=O)N2CC[C@@H](OC)[C@@H](N)C2)cc2nc(-c3cc4ccc(N(C(F)F)S(C)(=O)=O)nc4n3CC3CC3)c(C)n12` [Example 335, ~{N}-[2-[7-[(3~{S}, 4~{R})-3-amino-4-methoxypiperidine-1-carbonyl]-5-methoxy-3-methylimidazo [1,2-a]pyridin-2-yl]-1-(cyclopropylmethyl)pyrrolo [2,3-b]pyridin-6-yl]-~{N}-(difluoromethyl) methanesulfonamide], 178 nM. For `COc1cc(C(=O)N2[C@H]3CC[C@@H]2[C@H](N)C3)cc2nc(-c3cc4ccc(C5CCN(C)C(=O)C5)nc4n3CC3CC3)c(C)n12` (stereo partly shown) [Example 560, 4-[2-[7-[(1~{R},2~{R}, 4~{S})-2-amino-7-azabicyclo[2.2.1]heptane-7-carbonyl]-5-methoxy-3-methylimidazo[1,2-a]pyridin-2-yl]-1-(cyclopropylmethyl)pyrrolo [2,3-b]pyridin-6-yl]-1-methylpiperidin-2-one], the 50% inhibitory concentration (IC50) was 114 nM.

In the case of `COc1cc(C(=O)N2C[C@H]3CC[C@@H]2[C@@H]3N)cc2nc(-c3cc4ccc([C@@H](C)NC(=O)C(C)(C)C)nc4n3CC3CC3)c(C)n12` [Example 174, N-((R)-1-(2-(7-((1R,4R,7R)-7-amino-2-azabicyclo[2.2.1]heptane-2-carbonyl)-5-methoxy-3-methylimidazo[1,2-a]pyridin-2-yl)-1-(cyclopropylmethyl)-1H-pyrrolo [2,3-b]pyridin-6-yl)ethyl) pivalamide], the IC50 stood at 297 nM. Then `COc1cc(C(=O)N2[C@H]3CC[C@@H]2[C@H](N)C3)cc2nc(-c3cc4ccc([C@@H](C)NC(=O)c5ccccc5C(F)F)nc4n3CC3CC3)c(C)n12` [Example 11, ~{N}-[(1~{R})-1-[2-[7-[(1~{R},2~{R},4~{S})-2-amino-7-azabicyclo [2.2.1]heptane-7-carbonyl]-5-methoxy-3-methylimidazo [1,2-a]pyridin-2-yl]-1-(cyclopropylmethyl)pyrrolo[2,3-b]pyridin-6-yl]ethyl]-2-(difluoromethyl) benzamide], with 253 nM; and `COc1cc(C(=O)N2[C@H]3CC[C@@H]2[C@H](N)C3)cc2nc(-c3cc4ccc(C(C)(C)CC(=O)N5CC(F)(F)C5)nc4n3CC3CC3)c(C)n12` [Example 538, 3-[2-[7-[(1~{R},2~{R}, 4~{S})-2-amino-7-azabicyclo[2.2.1]heptane-7-carbonyl]-5-methoxy-3-methylimidazo[1,2-a]pyridin-2-yl]-1-(cyclopropylmethyl)pyrrolo [2,3-b]pyridin-6-yl]-1-(3,3-difluoroazetidin-1-yl)-3-methylbutan-1-one], with 175 nM; and `COc1cc(C(=O)N2CCC3(CCCCN3)C2)cc2nc(-c3cc4ccc([C@@H](C)NC(=O)C56CC(F)(C5)C6)nc4n3CC3CC3)c(C)n12` (stereo partly shown) [Example 4, ~{N}-[(1~{R})-1-[1-(cyclopropylmethyl)-2-[7-(2,6-diazaspiro [4.5]decane-2-carbonyl)-5-methoxy-3-methylimidazo[1,2-a]pyridin-2-yl]pyrrolo[2,3-b]pyridin-6-yl]ethyl]-3-fluorobicyclo[1.1.1] pentane-1-carboxamide], with 23400 nM. Then `COc1cc(C(=O)N2[C@H]3CC[C@@H]2[C@H](N)C3)cc2nc(-c3cc4ccc([C@@H](C)NC(=O)C5CC56CC6)nc4n3CC3CC3)c(C)n12` (stereo partly shown) [Example 69, ~{N}-[(1~{R})-1-[2-[7-[(1~{R},2~{R},4~{S})-2-amino-7-azabicyclo [2.2.1]heptane-7-carbonyl]-5-methoxy-3-methylimidazo [1,2-a]pyridin-2-yl]-1-(cyclopropylmethyl)pyrrolo[2,3-b]pyridin-6-yl]ethyl]spiro[2.2] pentane-2-carboxamide], with 41 nM. Then `COc1cc(C(=O)N2CCC[C@@H](N)C2)cc2nc(-c3cc4ccc(N(C)S(C)(=O)=O)nc4n3CC3CC3)c(C)n12` [Example 482, ~{N}-[2-[7-[(3~{R})-3-aminopiperidine-1-carbonyl]-5-methoxy-3-methylimidazo[1,2-a]pyridin-2-yl]-1-(cyclopropylmethyl)pyrrolo [2,3-b]pyridin-6-yl]-~{N}-methylmethanesulfonamide], with 171 nM. Take `COC(=O)N(C)c1ccc2cc(-c3nc4cc(C(=O)N5[C@H]6CC[C@@H]5[C@H](N)C6)cc(OC)n4c3C)n(CC3CC3)c2n1` [Example 465, methyl~{N}-[2-[7-[(1~{R},2~{R},4~{S})-2-amino-7-azabicyclo[2.2.1]heptane-7-carbonyl]-5-methoxy-3-methylimidazo [1,2-a]pyridin-2-yl]-1-(cyclopropylmethyl)pyrrolo [2,3-b]pyridin-6-yl]-~{N}-methylcarbamate]: the concentration for half-maximal inhibition (IC50) turned out to be 85.6 nM. `COc1cc(C(=O)N2[C@H]3CC[C@@H]2[C@H](N)C3)cc2nc(-c3cc4ccc([C@@H](C)NC(=O)CCS(C)(=O)=O)nc4n3CC3CC3)c(C)n12` [Example 153, ~{N}-[(1~{R})-1-[2-[7-[(1~{R},2~{R},4~{S})-2-amino-7-azabicyclo[2.2.1]heptane-7-carbonyl]-5-methoxy-3-methylimidazo [1,2-a]pyridin-2-yl]-1-(cyclopropylmethyl)pyrrolo [2,3-b]pyridin-6-yl]ethyl]-3-methylsulfonylpropanamide]: the IC50 came out at 68.7 nM. Take `COc1cc(C(=O)N2[C@H]3CC[C@@H]2[C@H](N)C3)cc2nc(-c3cc4ccc([C@@H](C)NC(=O)N5CCO[C@@H](C)C5)nc4n3CC3CC3)c(C)n12` [Example 201, (2~{S})-~{N}-[(1~{R})-1-[2-[7-[(1~{R},2~{R},4~{S})-2-amino-7-azabicyclo[2.2.1]heptane-7-carbonyl]-5-methoxy-3-methylimidazo [1,2-a]pyridin-2-yl]-1-(cyclopropylmethyl)pyrrolo [2,3-b]pyridin-6-yl]ethyl]-2-methylmorpholine-4-carboxamide]: the half-maximal inhibitory concentration (IC50) was determined as 17.4 nM. To `COc1cc(C(=O)N2[C@H]3CC[C@@H]2[C@H](N)C3)cc2nc(-c3cc4ccc([C@@H](C)NC(=O)N5CC[C@H](F)C5)nc4n3CC3CC3)c(C3CC3)n12` [Example 216, (3~{S})-~{N}-[(1~{R})-1-[2-[7-[(1~{R},2~{R}, 4~{S})-2-amino-7-azabicyclo[2.2.1]heptane-7-carbonyl]-3-cyclopropyl-5-methoxyimidazo [1,2-a]pyridin-2-yl]-1-(cyclopropylmethyl)pyrrolo [2,3-b]pyridin-6-yl]ethyl]-3-fluoropyrrolidine-1-carboxamide] belongs 48.3 nM. To `[2H]C([2H])([2H])N(c1ccc2cc(-c3nc4cc(C(=O)N5C[C@H]6CC[C@@H]5[C@@H]6N)cc(OC)n4c3C)n(CC3CC3)c2n1)S(=O)(=O)Cc1ccccc1` [Example 471, N-[2-[7-[(1R,4R,7R)-7-amino-2-azabicyclo[2.2.1]heptane-2-carbonyl]-5-methoxy-3-methyl-imidazo [1,2-a]pyridin-2-yl]-1-(cyclopropylmethyl)pyrrolo[2,3-b]pyridin-6-yl]-1-phenyl-N-(trideuteriomethyl) methanesulfonamide] belongs 1360 nM. In the case of `COc1cc(C(=O)N[C@H]2CNCC[C@H]2C)cc2nc(-c3cc4ccc(N(C(F)F)S(C)(=O)=O)nc4n3CC3CC3)c(C)n12` [Example 313, 2-[1-(cyclopropylmethyl)-6-[difluoromethyl (methylsulfonyl)amino]pyrrolo[2,3-b]pyridin-2-yl]-5-methoxy-3-methyl-~{N}-[(3~{R},4~{R})-4-methylpiperidin-3-yl]imidazo[1,2-a] pyridine-7-carboxamide], the 50% inhibitory concentration (IC50) came out at 24200 nM. For the molecule `COc1cc(C(=O)N2[C@H]3CC[C@@H]2[C@H](N)C3)cc2nc(-c3cc4ccc([C@@H](C)NC(=O)NC(C)(C)C)nc4n3CC3CC3)c(C)n12` [Example 244, 1-[(1~{R})-1-[2-[7-[(1~{R},2~{R},4~{S})-2-amino-7-azabicyclo[2.2.1]heptane-7-carbonyl]-5-methoxy-3-methylimidazo [1,2-a]pyridin-2-yl]-1-(cyclopropylmethyl)pyrrolo [2,3-b]pyridin-6-yl]ethyl]-3-~{tert}-butylurea], the IC50 was 89.6 nM. Regarding `CCc1ccc2cc(-c3nc4cc(C(=O)N5[C@H]6CC[C@@H]5[C@H](N)C6)cc(OC)n4c3C)n(CC(C)(F)F)c2n1` [Example 500, [(1~{R},2~{R},4~{S})-2-amino-7-azabicyclo [2.2.1]heptan-7-yl]-[2-[1-(2,2-difluoropropyl)-6-ethylpyrrolo[2,3-b]pyridin-2-yl]-5-methoxy-3-methylimidazo [1,2-a]pyridin-7-yl] methanone], the IC50 is 160 nM. To `COc1cc(C(=O)N2CCC[C@@H](N)C2)cc2nc(-c3cc4ccc([C@@H](C)NC(=O)C(C)(C)C)nc4n3CC3CC3)c(C3CC3)n12` [Example 143, ~{N}-[(1~{R})-1-[2-[7-[(3~{R})-3-aminopiperidine-1-carbonyl]-3-cyclopropyl-5-methoxyimidazo [1,2-a]pyridin-2-yl]-1-(cyclopropylmethyl)pyrrolo [2,3-b]pyridin-6-yl]ethyl]-2,2-dimethylpropanamide] belongs 139 nM.

The values above are taken from patent US12240862B2, “Inhibitors of peptidylarginine deiminases” (Gilead Sciences, Inc., priority 2020, dated 2025).
